Assay results from the NIST ThermoML archive (doi:10.1016/j.tca.2015.05.023).
± gives the expanded uncertainty stated by the source.

Experiments:
[1] = Molar enthalpy of transition or fusion; settings: Crystal; DSC
[2] = Crystal; DTA

With O=[N+]([O-])[O-].[Na+] [sodium nitrate] the “Molar enthalpy of transition or fusion” value [1] was 3.84 ± 0.122 kcal/mol and the Triple point temperature [2] was 581.15 ± 1 K.
